This is an account of results in patent US20060052451A1, “Method” (priority 2002, published 2006).

The structures appear in SMILES notation. Like-named read-outs stand apart in the source and are kept apart here.

Assay [1] is described as follows: 7-day oral gavage study, metabolic parameters, body weight and food consumption in CR SD rats. Format: in vivo, rat. Particulars: for Cholesterol (plasma) / Glucose (plasma) / Insulin (plasma) / Triglycerides (plasma): n=5. On the procedure: Two groups (n=5) of CR SD rats (approximately 300 g) were treated with 2 dose levels of perfluorinated compounds (15 and 25 mg/kg/day body weight). Animals were administered test substances, dissolved in corn oil, by oral gavage, daily for 7 days. One group of 20 CR SD rays was also treated with vehicle (corn oil) alone. Body weight and food consumption were monitored daily.
Twenty-four hours after the last dose the animals were killed by an increasing concentration of carbon dioxide. Blood was collected by cardiac puncture and plasma was prepared and stored at −70° C. until analysed.
Plasma was analysed for triglycerides, cholesterol, and glucose, using kits purchased from Sigma. Concentrations of plasma insulin were determined using a commercially available enzyme-immunoassay-based kit from Amersham Biosciences. All assays were carried out as specified by the manufacturer.

In the next assay the target is T1, PPAR gamma (Homo sapiens, UniProt P37231).
T1 construct: 25 ng of vector DNA carrying PPAR alpha, delta or gamma; expressed in transfected cells; host or cells: COS-1 (African green monkey kidney cells)
T1 sequence (P37231 1-505): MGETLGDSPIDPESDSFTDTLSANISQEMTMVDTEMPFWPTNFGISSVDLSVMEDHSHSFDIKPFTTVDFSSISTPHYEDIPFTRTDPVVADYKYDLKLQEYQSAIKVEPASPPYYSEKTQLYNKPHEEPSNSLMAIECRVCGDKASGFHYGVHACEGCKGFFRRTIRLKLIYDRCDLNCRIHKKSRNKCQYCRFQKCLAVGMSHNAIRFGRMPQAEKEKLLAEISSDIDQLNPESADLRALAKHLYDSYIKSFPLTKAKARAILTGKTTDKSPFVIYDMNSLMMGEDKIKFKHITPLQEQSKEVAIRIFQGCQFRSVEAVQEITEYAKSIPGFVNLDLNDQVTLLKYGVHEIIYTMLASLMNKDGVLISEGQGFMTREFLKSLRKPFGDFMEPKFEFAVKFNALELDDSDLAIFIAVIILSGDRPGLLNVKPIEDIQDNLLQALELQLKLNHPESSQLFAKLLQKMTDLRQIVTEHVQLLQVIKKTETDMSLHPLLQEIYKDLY
In words: PPAR gamma transactivation assay in COS-1 cells. Format: cell-based.

The test system of assay [2] is three human tumour-derived cell lines (HT-29, MCF7, PC3). In words: SRB growth inhibition, summary over the three human tumour cell lines. Format: cell-based. Particulars: over HT-29, MCF7 and PC3. On the procedure: (§1) The effect of perfluorinated compounds on the inhibition of tumour cell growth was assessed iii vitro using three human tumour-derived cell lines. Cancer cell lines were tested using the sulphorhodamine B (SRB) assay (which measures cellular protein and is directly related to cell number), which is utilised by the […] to screen anti-cancer agents.
(§2) HT-29 cells (human colon tumour-derived), MCF7 cells (human breast cancer-derived) and PC3 cells (human prostate cancer-derived) were harvested and diluted (to 5×10^4 cells per ml, 1×10^5 cells per ml and 7.5×10^4 cells per ml respectively) in RPMI 1640 medium containing 5% FBS, 2 mM glutamine and. 50 μg/ml gentamicin. 100 μl of cell suspension per well was added to 96 well plates and allowed to attach overnight. Cells were exposed to test compounds dissolved in DMSO in 100 μl of medium to give final drug concentrations of 0, 0.3, 1, 3, 10, 30, 100, 300, 1000 and 3000 μM (and DMSO at 0.25%). (n=6 for each drug concentration). After 48 hours, cells were fixed in 10% trichloroacetic acid (TCA) at 4° C. for 1-2 hours then washed using water and subsequently air-dried. 100 μl SRB solution (0.4%) in 1% Acetic Acid was added to each well, and plates were incubated at room temperature for 10 minutes. Unbound dye was removed by washing with 1% acetic acid. Plates were air-dried and bound stain was solubilised in 10 mM Tris base and the absorbance read at 520 nm.

The target of the next assay is T2, PPAR delta (Homo sapiens, UniProt Q03181).
T2 construct: 25 ng of vector DNA carrying PPAR alpha, delta or gamma; expressed in transfected cells; host or cells: COS-1 (African green monkey kidney cells)
T2 sequence (Q03181 1-441): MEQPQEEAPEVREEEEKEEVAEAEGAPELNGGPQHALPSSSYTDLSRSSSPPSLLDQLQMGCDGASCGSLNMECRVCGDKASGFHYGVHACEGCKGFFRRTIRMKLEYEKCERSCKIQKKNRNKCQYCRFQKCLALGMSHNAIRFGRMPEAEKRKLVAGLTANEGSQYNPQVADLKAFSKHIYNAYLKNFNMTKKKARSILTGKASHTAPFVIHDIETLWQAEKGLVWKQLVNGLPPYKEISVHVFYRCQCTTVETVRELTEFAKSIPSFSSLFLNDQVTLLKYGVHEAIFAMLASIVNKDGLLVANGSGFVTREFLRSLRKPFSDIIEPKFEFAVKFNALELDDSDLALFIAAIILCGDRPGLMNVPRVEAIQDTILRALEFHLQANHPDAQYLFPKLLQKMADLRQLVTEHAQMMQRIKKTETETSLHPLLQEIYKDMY
In words: PPAR delta transactivation assay in COS-1 cells. Also noted: Fold activation of PPAR delta: dose or concentration left out as unconfirmed. Format: cell-based. Particulars: for Fold activation of PPAR delta: mean±SD n=3; for Inhibition of activation of PPAR delta (by a factor of): transactivation assay.

The subject of assay [3] is PC3 cells (human prostate cancer-derived). In words: SRB growth inhibition assay, PC3 cells. Format: cell-based. The procedure:
as §1, §2

Assay [4] has as its system HT-29 cells (human colon tumour-derived). In words: SRB growth inhibition assay, HT-29 cells. Format: cell-based. Particulars: 48 hours exposure. The procedure:
as §1, §2

In assay [5] the test system is MCF7 cells (human breast cancer-derived). In words: SRB growth inhibition assay, MCF7 cells. Format: cell-based. Particulars: 48 hours exposure. The procedure: as §1, §2
Assay [6] addresses T3, human PPAR-alpha ligand binding domain (Homo sapiens, UniProt Q07869).
T3 sequence (Q07869 179-468): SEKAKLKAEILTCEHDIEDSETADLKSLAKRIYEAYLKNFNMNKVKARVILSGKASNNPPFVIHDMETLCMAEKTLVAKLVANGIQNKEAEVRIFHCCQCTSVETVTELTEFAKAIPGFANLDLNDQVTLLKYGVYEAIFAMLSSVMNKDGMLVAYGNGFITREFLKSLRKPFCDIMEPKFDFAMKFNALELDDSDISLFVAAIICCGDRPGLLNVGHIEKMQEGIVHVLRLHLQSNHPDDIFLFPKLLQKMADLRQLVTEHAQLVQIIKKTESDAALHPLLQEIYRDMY
Kind of assay: PPAR alpha ligand binding (displacement of DAUDA). Conditions: for Kd: DAUDA displacement.

For assay [7], the target named is T4, human PPAR-gamma ligand binding domain (Homo sapiens, UniProt P37231).
T4 sequence (P37231 202-505): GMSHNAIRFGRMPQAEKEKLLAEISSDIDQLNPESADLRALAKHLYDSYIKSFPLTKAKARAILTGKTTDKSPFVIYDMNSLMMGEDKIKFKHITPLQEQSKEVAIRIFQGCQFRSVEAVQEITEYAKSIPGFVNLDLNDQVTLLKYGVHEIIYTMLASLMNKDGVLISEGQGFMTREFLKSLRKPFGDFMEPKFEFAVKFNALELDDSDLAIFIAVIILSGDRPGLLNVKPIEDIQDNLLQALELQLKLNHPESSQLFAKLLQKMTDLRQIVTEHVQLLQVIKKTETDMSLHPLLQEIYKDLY
Kind of assay: PPAR gamma ligand binding (displacement of cis-parinaric acid).

[8] abbreviates: 15 mg/kg/day oral gavage 7 days.
The mark [9] stands for this setting: 25 mg/kg/day oral gavage 7 days.
Setting [10] is: at 10 μM (maximal activation by test compound), value in parenthesis = positive control at 10 μM.
The mark [11] stands for this setting: Homo sapiens, PC-3, 48 hours exposure.

What is called IC50 is the concentration needed to halve the response being measured. As for `O=C(O)C(F)(F)C(F)(F)C(F)(F)C(F)(F)C(F)(F)C(F)(F)F` [PFHA, Perfluoroheptanoic acid], in assay [1] (setting [8]), the “Cholesterol (plasma)” value came out at 1.50 ± 0.23 mmol/L, the “Glucose (plasma)” value worked out at 16.43 ± 2.59 mmol/L, the “Insulin (plasma)” value came to 114.2 ± 90.06 ng/mL and the “Triglycerides (plasma)” value was 0.94 ± 0.20 mmol/L. In addition, in [1] (setting [9]), the “Cholesterol (plasma)” value was determined as 1.46 ± 0.17 mmol/L, the “Glucose (plasma)” value was 18.15 ± 2.78 mmol/L, the “Insulin (plasma)” value amounted to 165.1 ± 114.4 ng/mL and the “Triglycerides (plasma)” value amounted to 0.75 ± 0.26 mmol/L. The “Fold activation of PPAR gamma” value at PPAR gamma (setting [10]) stood at 3.43 ± 2.62 fold. The same molecule gave an IC50 in assay [2] (Homo sapiens) of 200 to 600 µM. In addition, on PPAR delta, the “Fold activation of PPAR delta” value is 0.45 ± 0.28 fold and the “Inhibition of activation of PPAR delta (by a factor of)” value (from here on “Inhibition of activation of PPAR delta”) was 2.2. In addition, the IC50 in assay [3] (setting [11]) turned out to be 321 µM. In assay [4] (Homo sapiens, HT-29, 48 h), this molecule came in with an IC50 of 371 µM. Moreover, the IC50 in [5] (Homo sapiens, MCF7, 48 h) turned out to be 573 µM. Moreover, the “Reduction in binding affinity for PPAR alpha compared to PFOA” value in assay [6] is 30 fold. Moreover, the Kd in assay [7] stood at 99 µM.
Turning to `O=C(O)C(F)(F)C(F)(F)F` [PFPA, Perfluropropionic acid], the results for the “Cholesterol (plasma)” value in assay [1] (setting [8]) and in [1] (setting [9]) were 1.28 ± 0.10 mmol/L and 1.39 ± 0.39 mmol/L, respectively. In addition, the “Glucose (plasma)” value amounted to 15.46 ± 1.13 mmol/L in [1] (setting [8]) and 14.97 ± 1.29 mmol/L in assay [1] (setting [9]). Further, the “Insulin (plasma)” value is 129 ± 36.05 ng/mL in assay [1] (setting [8]) and 179.7 ± 177.1 ng/mL in assay [1] (setting [9]). Besides, the figures for the “Triglycerides (plasma)” value in assay [1] (setting [8]) and in assay [1] (setting [9]) were 1.02 ± 0.38 mmol/L and 0.95 ± 0.17 mmol/L, respectively. Further, in assay [1] (15 and 25 mg/kg/day, continued till end of treatment), the “Bodyweight change” value was “lost bodyweight after day 3”. Also, on PPAR gamma (at 1 mM, mean±SD n=3), the “Fold activation of PPAR gamma” value was 1.86 ± 0.81 fold. Besides, the IC50 in [2] is ~3000 µM; in assay [3] (48 hours exposure) it was > 3000 µM; in assay [4], > 3000 µM; in [5] it was > 3000 µM. The “Fold activation of PPAR delta” value at PPAR delta turned out to be 0.63 ± 0.25 fold. The “Inhibition of activation of PPAR delta” value at PPAR delta was found to be 1.6. Moreover, the Kd in [6] (read-out: PPAR Receptor Binding Kd Alpha (apparent Kd)) was found to be 2 µM; in assay [7] (read-out: PPAR Receptor Binding Kd Gamma (apparent Kd), cis-parinaric acid displacement), 0.6 µM. Moreover, the “Reduction in binding affinity for PPAR gamma compared to PFOA” value in assay [7] is recorded as ~2 fold.
Consider `O=C(O)C(F)(F)C(F)(F)C(F)(F)C(F)(F)F` [PFPenA, Perfluoropentanoic acid], for which, in assay [1] (setting [8]), the “Cholesterol (plasma)” value came out at 1.83 ± 0.41 mmol/L, the “Glucose (plasma)” value was 16.22 ± 1.29 mmol/L, the “Insulin (plasma)” value worked out at 124.7 ± 126.3 ng/mL and the “Triglycerides (plasma)” value is 1.24 ± 0.04 mmol/L. Further, the “Plasma insulin, % of control values” in assay [1] (25 mg/kg) amounted to 33.9%. In assay [1] (setting [9]), the “Cholesterol (plasma)” value turned out to be 1.67 ± 0.20 mmol/L, the “Glucose (plasma)” value was found to be 16.67 ± 0.93 mmol/L, the “Insulin (plasma)” value was 62.6 ± 68.26 ng/mL and the “Triglycerides (plasma)” value turned out to be 1.07 ± 0.37 mmol/L. Besides, the “Fold activation of PPAR gamma” value at PPAR gamma (setting [10]) turned out to be 5.07 ± 2.29 fold. In addition, the IC50 in assay [2] (Homo sapiens) was ~3000 µM. Also, on PPAR delta, the “Fold activation of PPAR delta” value amounted to 0.45 ± 0.04 fold and the “Inhibition of activation of PPAR delta” value is on record as 2.2. This molecule also showed an IC50 in [3] (setting [11]) of 2630 µM. For the same molecule, the IC50 in assay [4] (Homo sapiens, HT-29, 48 h) is > 3000 µM. Moreover, in [5] (Homo sapiens, MCF7, 48 h), the IC50 is > 3000 µM. In addition, the “Reduction in binding affinity for PPAR alpha compared to PFOA” value in [6] worked out at 10 fold. The Kd in assay [6] (PPAR Receptor Binding Kd Alpha (apparent Kd)) came out at 62 µM. Further, in assay [7], the Kd turned out to be 17 µM and the “Reduction in binding affinity for PPAR gamma compared to PFOA” value is reported as “approximately 50 fold”.
